Test results reported in US20140243415A1, “COMPOUNDS INHIBITING GALECTIN-1 EXPRESSION, CANCER CELL PROLIFERATION, INVASION, AND TUMORIGENESIS” (ONCOETHIX SA, priority 2011, published 2014).

Experiments:
cdc2 (tyrosine 15) = test: Western blot of phosphorylated cdc2 in SQ20B; assay type: cell-based, human; details: 3 μM OTX-008 for 72 h
Description: Cells were lysed in buffer containing 50 mM HEPES (pH 7.6), 150 mM NaCl, 1% Triton X-100, 2 mM sodium vanadate, 100 mM NaF, and 0.4 mg/ml phenylmethylsulfonyl fluoride. Equal amounts of protein (30 μg/lane) were subjected to SDS-PAGE and transferred to nitrocellulose membranes. Membranes were blocked with 5% milk in 0.05% Tween 20/phosphate-buffered saline and then incubated with the primary antibody overnight. Membranes were then washed and incubated with the secondary antibody conjugated to horseradish peroxidase. Bands were visualized by using the enhanced chemiluminescence Western blotting detection system. Densitometric analysis was performed under conditions that yielded a linear response. The following antibodies were used: anti-p-cdc2 (tyr15), anti-p-wee1 (ser642), anti-p-p44/42 MAPK (thr202/tyr204), anti-p44/42, anti-p-AKT (ser473), anti-AKT, anti-p-S6 (ser235/236) (Cell Signaling, Saint Quentin Yvelines, France), anti-p-PKCα (ser657) (BD Biosciences, Le-Pont-de-Claix, France) and anti-galectin-1 (Abcam, Cambridge, Mass., USA). All antibodies were used at a 1:1000 dilution.
To study the mechanism of OTX-008-induced inhibition of cell proliferation, the effect of OTX-008 on cell cycle in SQ20B cells was examined (FIG. 5B). […] Activation of cdc2 (cdk1) by de-phosphorylation of tyrosine 15 is required for G2/M transition. […]

galectin-1 = molecular target: T1, galectin-1 (Homo sapiens, UniProt P09382); test: Immunofluorescence of galectin-1 in SQ20B cells; assay type: cell-based
T1 construct: Western Blot of galectin-1 on SQ20B cells treated with 3 μM OTX-008 for 24 h, 48 h and 72 h; endogenous in cells; host or cells: SQ20B (ATCC)
T1 sequence (P09382 whole entry): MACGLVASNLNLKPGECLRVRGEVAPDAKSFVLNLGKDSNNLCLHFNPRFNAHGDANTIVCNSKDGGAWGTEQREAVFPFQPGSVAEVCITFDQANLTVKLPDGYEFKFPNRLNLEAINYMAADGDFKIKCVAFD
Description: FIG. 3. Effects of OTX-008 on galectin-1 expression and localization. A—Western Blot of galectin-1 on SQ20B cells treated with 3 μM OTX-008 for 24 h, 48 h and 72 h. B and C—Immunofluorescence of galectin-1 on SQ20B cells treated with 3 μM OTX-008 for 24 and 48 h. B—OTX-008 treatment decreases galectin-1 immunostaining in SQ20B cells. C—Galectin-1 translocates into the nucleus after OTX-008 exposure. D—Western Blot of p-AKTser473, AKT, p-S6, p-ERK1/2, ERK and p-PKCα in SQ20B cells treated with 3 μM OTX-008 for 10 min, 1 h, 2 h, 5 h and 24 h.
The cells were grown on cover slips at 37° C. overnight. The growth media was then removed; the cells were washed with PBS and fixed in 4% of paraformaldhyde for 15 min and permeabilized with PBS/tritonX100 (1:500) then washed again with PBS. Incubation with primary antibodies was performed at 4° C. overnight (galectin-1, 1:100; Abcam, Cambridge, Mass., USA), followed by the incubation with the secondary antibodies (anti-mouse, 1:100; Cell Signaling, Saint Quentin Yvelines, France) for 1 h at room temperature in the dark. The nuclei were stained with Dapi 1:10000 (Santa Cruz Biotechnology, Santa Cruz, Calif., USA). The images were captured and analyzed with a Zeiss observer Z1 microscope. Images quantification was performed using Histolab Software (Microvision, France) subtracting the background. Magnification ×20 and ×40.

MCF7-shWISP = test: Antiproliferative effects, shWISP model; assay type: cell-based, human; details: MCF7-shWISP vs MCF7
From the text: FIG. 2. Epithelial-to-mesenchymal differentiation and OTX-008 sensitivity. A—Correlations between galectin-1 (LGALS1) and vimentin, E-cadherin (CDH1) and N-cadherin (CDH2) relative mRNA expression. B—Correlations between OTX-008 IC50s and vimentin, E-cadherin (CDH1) and N-cadherin (CDH2) relative mRNA expression. C—Antiproliferative effects of OTX-008 in epithelial COLO205-S and mesenchymal COLO205-R colon cancer cells. D—Antiproliferative effects of OTX-008 in SNAIL-inducible colon cancer cell lines. E—Antiproliferative effects of OTX-008 in shWISP breast cancer cell lines.
Cell survival was determined using the MTT assay (3-[4,5-dimethylthiazol-2-yl]-2,5-diphenyltetrazolium bromide; Sigma, Saint-Quentin Fallavier, France). The conversion of yellow water-soluble tetrazolium MTT into purple insoluble formazan is catalyzed by mitochondrial dehydrogenases and used to estimate the number of viable cells. In brief, cells were seeded in 96-well tissue culture plates at a density of 2×10^3 cells/well. […] After incubation, the supernatant was discarded, insoluble formazan precipitates were dissolved in 0.1 ml of DMSO and the absorbance was measured at 560 nm by use of a microplate reader (Thermo, France). […] IC50's were determined as the halves of maximal inhibitory drug concentration for each cell line. […]

## CN(C)CCNC(=O)COc1c2cccc1Cc1cccc(c1OCC(=O)NCCN(C)C)Cc1cccc(c1OCC(=O)NCCN(C)C)Cc1cccc(c1OCC(=O)NCCN(C)C)C2 [OTX-008]
cdc2 (tyrosine 15)
  cdc2 activity (phosphorylation on tyrosine 15): inactivated cdc2
galectin-1; 3 μM OTX-008
  galectin-1 localization: translocates from the cytoplasm to the nucleus
galectin-1; 3 μM OTX-008, 24 and 48 h
  galectin-1 expression in the cytoplasm (immunofluorescence): decrease galectin-1 expression
MCF7-shWISP
  effect of WISP inhibition on sensitivity: marked resistance to high concentrations of the drug
